Data on 29 compounds can be found in patent US10239870B2, “Dopamine D3 receptor antagonists” (priority 2014, dated 2019).

SMILES strings stand for the structures. Where a name gives a salt, the structure may show the parent alone.

In one assay the target is hD2 recombinant receptor (human dopamine receptor type 2, long variant, CHO-Gα16-hD2L membranes) (Homo sapiens (Human), UniProt P14416).
Experiment: not given
The settings on record: displacement of 0.08 nM [3H]-Spiperone.
On to `Cc1cncc(-c2nnc(SCCCN3CC[C@]4(CC4c4ccc(C(F)(F)F)cc4)C3)n2C)n1` (stereo partly drawn) [Example 222, (1R,3S/1S,3R)-5-(3-{[4-methyl-5-(6-methylpyrazin-2-yl)-4H-1,2,4-triazol-3-yl]sulfanyl}propyl)-1-[4-(trifluoromethyl)phenyl]-5-azaspiro[2.4]heptane], for which the “D2 pKi” value came out at 5.91.

For `Cc1cnc(-c2nnc(SCCCN3CC[C@]4(CC4c4ccc(C(F)(F)F)cc4)C3)n2C)cn1` (stereo partly drawn) [Example 223, (1R,3S/1S,3R)-5-(3-{[4-methyl-5-(5-methylpyrazin-2-yl)-4H-1,2,4-triazol-3-yl]sulfanyl}propyl)-1-[4-(trifluoromethyl)phenyl]-5-azaspiro[2.4]heptane], the “D2 pKi” value was 6.00.

As to `Cc1nccnc1-c1nnc(SCCCN2CC[C@]3(C[C@@H]3c3ccc(C(F)(F)F)cc3)C2)n1C` [Example 224, (1R,3S/1S,3R)-5-(3-{[4-methyl-5-(3-methylpyrazin-2-yl)-4H-1,2,4-triazol-3-yl]sulfanyl}propyl)-1-[4-(trifluoromethyl)phenyl]-5-azaspiro[2.4]heptane], the “D2 pKi” value was 5.85.

With `Cn1c(SCCCN2CC[C@]3(C[C@@H]3c3ccc(C(F)(F)F)cc3)C2)nnc1-c1cnc(C(N)=O)cn1` [Example 228, 5-[4-methyl-5-({3-[(1R,3S)-1-[4-(trifluoromethyl)phenyl]-5-azaspiro[2.4]heptan-5-yl]propyl}sulfanyl)-4H-1,2,4-triazol-3-yl]pyrazine-2-carboxamide], the “D2 pKi” value is 6.33.

Consider `Cn1cccc1-c1nnc(SCCCN2CC[C@]3(CC3c3ccc(C(F)(F)F)cc3)C2)n1C` (stereo partly drawn) [Example 258, (1R,3S/1S,3R)-5-(3-{[4-methyl-5-(1-methyl-1H-pyrrol-2-yl)-4H-1,2,4-triazol-3-yl]sulfanyl}propyl)-1-[4-(trifluoromethyl)phenyl]-5-azaspiro[2.4]heptane], for which the “D2 pKi” value was 6.26.

For the compound `Cc1nnsc1-c1nnc(SCCCN2CC[C@]3(C[C@@H]3c3ccc(C(F)(F)F)cc3)C2)n1C.Cl` [Example 262, (1R,3S)-5-(3-{[4-methyl-5-(4-methyl-1,2,3-thiadiazol-5-yl)-4H-1,2,4-triazol-3-yl]sulfanyl}propyl)-1-[4-(trifluoromethyl)phenyl]-5-azaspiro[2.4]heptane], the “D2 pKi” value was found to be 6.18.

As to `Cl.Cn1c(SCCCN2CC[C@]3(C[C@@H]3c3ccc(C(F)(F)F)cc3)C2)nnc1-c1cccn2cnnc12` [Example 267, (1R,3S)-5-{3-[(4-methyl-5-{[1,2,4]triazolo[4,3-a]pyridin-8-yl}-4H-1,2,4-triazol-3-yl)-sulfanyl]propyl}-1-[4-(trifluoromethyl)phenyl]-5-azaspiro[2.4]heptane], the “D2 pKi” value stood at 5.38.

Turning to `Cl.Cn1c(SCCCN2CC[C@]3(C[C@@H]3c3ccc(C(F)(F)F)cc3)C2)nnc1-c1ccc2nncn2c1` [Example 268, (1R,3S)-5-{3-[(4-methyl-5-{[1,2,4]triazolo[4,3-a]pyridin-6-yl}-4H-1,2,4-triazol-3-yl)-sulfanyl]propyl}-1-[4-(trifluoromethyl)phenyl]-5-azaspiro[2.4]heptane], the “D2 pKi” value turned out to be 5.80.

Take `Cn1c(SCCCN2CC[C@]3(C[C@@H]3c3ccc(C(F)(F)F)cc3F)C2)nnc1-c1ccn2cnnc2c1` [Example 270, (1S,3S)-1-[2-fluoro-4-(trifluoromethyl)phenyl]-5-{3-[(4-methyl-5-{[1,2,4]triazolo[4,3-a]pyridin-7-yl}-4H-1,2,4-triazol-3-yl)sulfanyl]propyl}-5-azaspiro[2.4]heptane]: the “D2 pKi” value is 6.04.

On to `Cc1nnc2ccc(-c3nnc(SCCCN4CC[C@]5(C[C@@H]5c5ccc(C(F)(F)F)cc5)C4)n3C)cn12` [Example 271, (1R,3S)-5-{3-[(4-methyl-5-{3-methyl-[1,2,4]triazolo[4,3-a]pyridin-6-yl}-4H-1,2,4-triazol-3-yl)sulfanyl]propyl}-1-[4-(trifluoromethyl)phenyl]-5-azaspiro[2.4]heptane], for which the “D2 pKi” value is listed as 5.91.

Turning to `Cl.Cn1c(SCCCN2CC[C@]3(C[C@@H]3c3ccc(C(F)(F)F)cc3)C2)nnc1-c1ccc(-c2nnco2)cc1` [Example 274, (1R,3S)-5-[3-({4-methyl-5-[4-(1,3,4-oxadiazol-2-yl)phenyl]-4H-1,2,4-triazol-3-yl}sulfanyl)propyl]-1-[4-(trifluoromethyl)phenyl]-5-azaspiro[2.4]heptane], the “D2 pKi” value was determined as 6.52.

The target of the next assay is hD2 recombinant receptor (human dopamine receptor type 2, long variant, CHO-Gα16-hD2L cells) (Homo sapiens (Human), UniProt P14416). In words: cell-based. To be noted: D2 fpKi, functional pKi; antagonism of dopamine EC80 calcium response (FLIPR).
One may read the Ki as a dissociation constant, usually derived from enzyme kinetics or from competition with a known ligand. As to `Cc1ncoc1-c1nnc(SCCCN2CCC[C@]3(C[C@H]3c3ccc(C(F)(F)F)cc3)C2)n1C` (racemic) [Example 310, (1R,3S/1S,3R)-5-(3-{[4-methyl-5-(4-methyl-1,3-oxazol-5-yl)-4H-1,2,4-triazol-3-yl]sulfanyl}propyl)-1-[4-(trifluoromethyl)phenyl]-5-azaspiro[2.5]octane], the Ki was 19.1 nM.

As for `Cn1c(SCCCN2CC[C@]3(CC3c3ccc(C(F)(F)F)cc3F)C2)nnc1C1CCOCC1` (single isomer, unassigned) [Example 71], the Ki is greater than 10000 nM.

With `Cn1c(SCCCN2CC[C@@]3(C[C@@H]3c3ccc(C(F)(F)F)cc3F)C2)nnc1C1CCOCC1` (single isomer, unassigned) [Example 74, (1S,3R or 1R,3S)-1-[2-fluoro-4-(trifluoromethyl)phenyl]-5-(3-{[4-methyl-5-(oxan-4-yl)-4H-1,2,4-triazol-3-yl]sulfanyl}propyl)-5-azaspiro[2.4]heptane hydrochloride], the Ki was 1260 nM.

With `Cn1c(SCCCN2CC[C@]3(C[C@H]3c3ccc(C(F)(F)F)cc3F)C2)nnc1C1CCOCC1` (single isomer, unassigned) [Example 75, (1R,3S or 1S,3R)-1-[2-fluoro-4-(trifluoromethyl)phenyl]-5-(3-{[4-methyl-5-(oxan-4-yl)-4H-1,2,4-triazol-3-yl]sulfanyl}propyl)-5-azaspiro[2.4]heptane hydrochloride], the Ki is greater than 10000 nM.

`Cn1c(SCCCN2CC[C@]3(CC3c3ccc(C(F)(F)F)cc3F)C2)nnc1C1CCOCC1` (single isomer, unassigned) [Example 76]: the Ki is 708 nM.

With `Cn1c(SCCCN2CC[C@]3(C[C@@H]3c3ccc(C(F)(F)F)cc3F)C2)nnc1C1CCOCC1` (single isomer, unassigned) [Example 79, hydrochloride], the Ki was 363 nM.

On to `Cn1c(SCCCN2CC[C@]3(C[C@@H]3c3ccccc3)C2)nnc1C1CCOCC1` (single isomer, unassigned) [Example 83, hydrochloride], for which the Ki is greater than 10000 nM.

`CC(=O)N1CCC(c2nnc(SCCCN3CC[C@]4(C[C@@H]4c4ccc(C(F)(F)F)cc4)C3)n2C)CC1` (single isomer, unassigned) [Example 100]: the Ki was 1170 nM.

On to `Cn1c(SCCCN2CC[C@]3(CC3c3ccc(C(F)(F)F)cc3)C2)nnc1N1CCOCC1` (single isomer, unassigned) [Example 114, hydrochloride], for which the inhibitory constant (Ki) was 1620 nM.

As to `Cn1c(SCCCN2CC[C@]3(CC3c3ccc(C(F)(F)F)cc3)C2)nnc1N1CCOCC1` (single isomer, unassigned) [Example 115], the Ki is 97.7 nM.

On to `Cn1c(CCCCN2CC[C@]3(C[C@@H]3c3ccc(C(F)(F)F)cc3F)C2)nnc1C1CCOCC1` (single isomer, unassigned) [Example 295, hydrochloride], for which the Ki is 871 nM.

Turning to `Cn1c(CCCCN2CC[C@]3(C[C@H]3c3ccc(C(F)(F)F)cc3)C2)nnc1C1CCOCC1` (single isomer, unassigned) [Example 299, (1S,3S or 1R,3R)-5-{4-[4-methyl-5-(oxan-4-yl)-4H-1,2,4-triazol-3-yl]butyl}-1-[4-(trifluoromethyl)phenyl]-5-azaspiro[2.4]heptane hydrochloride], the Ki was greater than 10000 nM.

With `Cn1c(CCCCN2CC[C@@]3(C[C@@H]3c3ccc(C(F)(F)F)cc3)C2)nnc1C1CCOCC1` (single isomer, unassigned) [Example 300, (1R,3R or 1S,3S)-5-{4-[4-methyl-5-(oxan-4-yl)-4H-1,2,4-triazol-3-yl]butyl}-1-[4-(trifluoromethyl)phenyl]-5-azaspiro[2.4]heptane hydrochloride], the Ki was greater than 10000 nM.

Consider `Cc1ncoc1-c1nnc(SCCCN2CCC3(CC2)C[C@@H]3c2ccccc2)n1C` (single isomer, unassigned) [Example 309, (1S or 1R)-6-(3-{[4-methyl-5-(4-methyl-1,3-oxazol-5-yl)-4H-1,2,4-triazol-3-yl]sulfanyl}propyl)-1-phenyl-6-azaspiro[2.5]octane hydrochloride], for which the Ki was 1120 nM.

For `Cc1ncoc1-c1nnc(SCCCN2CCC3(CCC3c3ccccc3)C2)n1C` (single isomer, unassigned) [Example 321, (1R,4S or 1S,4R or 1S,4S or 1R,4R)-6-(3-{[4-methyl-5-(4-methyl-1,3-oxazol-5-yl)-4H-1,2,4-triazol-3-yl]sulfanyl}propyl)-1-phenyl-6-azaspiro[3.4]octane hydrochloride], the Ki is 2240 nM.

`Cn1c(SCCCN2CC[C@]3(CC3c3ccccc3)C2)nnc1C1CCOCC1` (stereo partly drawn) [Example 80, (1R,3S/1S,3R)-5-(3-{[4-methyl-5-(oxan-4-yl)-4H-1,2,4-triazol-3-yl]-sulfanyl}propyl)-1-phenyl-5-azaspiro[2.4]heptane]: the Ki is greater than 10000 nM.

Turning to `Cn1c(SCCCN2CC[C@]3(CC3c3ccc(C(F)(F)F)nc3)C2)nnc1C1CCOCC1` (stereo partly drawn) [Example 84, (1R,3S/1S,3R)-5-(3-{[4-methyl-5-(oxan-4-yl)-4H-1,2,4-triazol-3-yl]sulfanyl}propyl)-1-[6-(trifluoromethyl)pyridin-3-yl]-5-azaspiro[2.4]heptane], the Ki was greater than 10000 nM.

Consider `CC(=O)N1CCC(c2nnc(SCCCN3CC[C@]4(C[C@@H]4c4ccc(C(F)(F)F)cc4)C3)n2C)CC1` [Example 99, 1-{4-[4-methyl-5-({3-[(1R,3S/1S,R3)-1-[4-(trifluoromethyl)phenyl]-5-azaspiro[2.4]heptan-5-yl]propyl}sulfanyl)-4H-1,2,4-triazol-3-yl]piperidin-1-yl}ethan-1-one], for which the Ki was 2240 nM.
